Assay results published in patent US7763600B2, “Hormone-based nitrogen monoxide donor compounds and use thereof in obstetrics and gynecology” (EFFIK, priority 2002, dated 2010).

Tested on: human myometreal fragments
Test: Inhibition in vitro of the uterine contractility of myometreal fibers from uteruses of women who are not pregnant
Type: cell-based
Conditions: for Inhibition as % (Mean): spontaneous contractions
Description: Inhibition In Vitro of the Uterine Contractility of Myometreal Fibers from Uteruses of Women Who are Not Pregnant
The contractile activity of human myometreal fragments was studied in vitro.
After a lag time of approximately two hours, allowing the establishment of spontaneous contractions, the inhibition of the contractions, produced by addition to the medium of 17α-hydroxyprogesterone and of its nitro derivative, 17α-hydroxypregn-4-ene-3,20-dione (4′-nitro-oxymethyl)benzoate, identified in this table under the name 17α-hydroxypregn-4-ene-3,20-dione (4′-nitro-oxymethyl)benzoate (example 4), could be measured.
This experiment makes it possible to evaluate the short-term effect of this compound.

SMILES	Inhibition as % (Mean) (concentration 2 × 10^−6 M) [%]	Inhibition as % (Mean) (concentration 2 × 10^−7 M) [%]	Activity on contractions compared with hydroxyprogesterone (on average, action much more constant, less variable)
CC(=O)[C@@]1(O)CC[C@H]2[C@@H]3CCC4=CC(=O)CC[C@]4(C)[C@H]3CC[C@@]21C [17α-hydroxyprogesterone, reference compound]	66	45	–
CC(=O)[C@@]1(OC(=O)c2ccc(CO[N+](=O)[O-])cc2)CC[C@H]2[C@@H]3CCC4=CC(=O)CC[C@]4(C)[C@H]3CC[C@@]21C [17α-hydroxypregn-4-ene-3,20-dione (4′-nitrooxymethyl)benzoate]	69	37	the same activity as hydroxyprogesterone
